In patent publication US11945816B2, “Inhibitors of EGFR and/or HER2 and methods of use” (Dana-Farber Cancer Institute, Inc., priority 2017, dated 2024):

How the values were obtained:
Type in all cases: cell-based
[1] = biological target: T1, wild-type EGFR transformed Ba/F3 cells (Homo sapiens, UniProt P00533); experiment: Proliferation inhibition assay, wild-type EGFR transformed Ba/F3 cells; settings: MTS assay, 72 hours
T1 construct: expressed in transfected cells; host or cells: Ba/F3
Description: (§1) Cell growth inhibition can be assessed by MTS assay or by Cell Titer Glo Luminescent Cell viability assay (Promega®). Cells are seeded and grow in culture plates before they are exposed to representative compounds of the application for various duration. The viability of the cells are then assessed. […] The growth curves can be fitted using a nonlinear regression model with sigmoidal dose response.
(§2) Cell growth inhibition was assessed by MTS assay for Ba/F3, DFCI58-229, and DFCI127c cells, or by Cell Titer Glo Luminescent Cell viability assay (Promega®) for DFC1362JC cells, 3000 Ba/F3 cells were seeded for per well in 96-well plates, and were exposed to representative compounds of the application (3.3 nM to 10 μM) for 72 hours. For DFCI58-229, DFCI127c, and DFC1362JC cells, 5000 cells were seeded per well. All experimental points included 6 to 12 wells. […] The growth curves were fitted using a nonlinear regression model with sigmoidal dose response.
(§3) Activities of representative compounds of the present application in inhibiting EGFR and HER2 were tested by MTS assay (for Ba/F3 cell, DFCI58-229 cell, and DFCI127c cells) or by CellTiter-Glot luminescent cell viability assay (for DFCI362JC cells). For assays with Ba/F3 cells, 3000 cells were seeded for per well in 96-well plates and were exposed to indicated compounds with a concentration of 3.3 to 10 μM for 72 hours. For assays with DFCI58-229 cell, DFCI127c cell, or DFCI362JC cell, 5000 cells were seeded per well in 96-well plates and were exposed to indicated compounds with a concentration of 3.3 to 10 μM for 72 hours.

[2] = biological target: T2, EGFR InsGY (D770delinsGY) transformed Ba/F3 cells (Homo sapiens, UniProt P00533, D770Y/INS769G); experiment: Proliferation inhibition assay, EGFR InsGY transformed Ba/F3 cells; settings: MTS assay, 72 hours
T2 construct: expressed in transfected cells; host or cells: Ba/F3
Description: as §1, §2, §3

[3] = biological target: T3, EGFR InsSVD (D770_N771insSVD) transformed Ba/F3 cells (Homo sapiens, UniProt P00533, INS770SVD); experiment: Proliferation inhibition assay, EGFR InsSVD transformed Ba/F3 cells; settings: MTS assay, 72 hours
T3 construct: expressed in transfected cells; host or cells: Ba/F3
Description: as §1, §2, §3

[4] = biological target: T4, EGFR InsASV (V769_D770insASV) transformed Ba/F3 cells (Homo sapiens, UniProt P00533, INS769ASV); experiment: Proliferation inhibition assay, EGFR InsASV transformed Ba/F3 cells; settings: MTS assay, 72 hours
T4 construct: expressed in transfected cells; host or cells: Ba/F3
Description: as §1, §2, §3

[5] = biological target: T5, EGFR InsHH (Y764_V765insHH) transformed Ba/F3 cells (Homo sapiens, UniProt P00533, INS764HH); experiment: Proliferation inhibition assay, EGFR InsHH transformed Ba/F3 cells; settings: MTS assay, 72 hours
T5 construct: expressed in transfected cells; host or cells: Ba/F3
Description: as §1, §2, §3

[6] = biological target: T6, EGFR InsH transformed Ba/F3 cells (Homo sapiens, UniProt P00533, DUP773-773); experiment: Proliferation inhibition assay, EGFR InsH transformed Ba/F3 cells; settings: MTS assay, 72 hours
T6 construct: expressed in transfected cells; host or cells: Ba/F3
Description: as §1, §2, §3

[7] = biological target: T7, EGFR InsNPG (D770_N771insNPG) transformed Ba/F3 cells (Homo sapiens, UniProt P00533, INS770NPG); experiment: Proliferation inhibition assay, EGFR InsNPG transformed Ba/F3 cells; settings: MTS assay, 72 hours
T7 construct: expressed in transfected cells; host or cells: Ba/F3
Description: as §1, §2, §3

[8] = biological target: T8, wild-type HER2 transformed Ba/F3 cells (Homo sapiens, UniProt P04626); experiment: Proliferation inhibition assay, wild-type HER2 transformed Ba/F3 cells; settings: MTS assay, 72 hours, Table 9 key
T8 construct: expressed in transfected cells; host or cells: Ba/F3
Description: as §1, §2, §3

[9] = biological target: T9, HER2 InsYVMA (A775_G776insYVMA) transformed Ba/F3 cells (Homo sapiens, UniProt P04626, INS775YVMA); experiment: Proliferation inhibition assay, HER2 InsYVMA transformed Ba/F3 cells; settings: MTS assay, 72 hours, Table 9 key
T9 construct: expressed in transfected cells; host or cells: Ba/F3
Description: as §1, §2, §3

[10] = biological target: T10, HER2 InsVC (G776delinsVC) transformed Ba/F3 cells (Homo sapiens, UniProt P04626, G776C/INS775V); experiment: Proliferation inhibition assay, HER2 InsVC transformed Ba/F3 cells; settings: MTS assay, 72 hours, Table 9 key
T10 construct: expressed in transfected cells; host or cells: Ba/F3
Description: as §1, §2, §3

[11] = biological target: T11, HER2 InsGSP (P780_Y781insGSP) transformed Ba/F3 cells (Homo sapiens, UniProt P04626, INS780GSP); experiment: Proliferation inhibition assay, HER2 InsGSP transformed Ba/F3 cells; settings: MTS assay, 72 hours, Table 9 key
T11 construct: expressed in transfected cells; host or cells: Ba/F3
Description: as §1, §2, §3

[12] = biological target: T12, HER2 InsWLV transformed Ba/F3 cells (Homo sapiens, UniProt P04626, INS773WL/M774V); experiment: Proliferation inhibition assay, HER2 InsWLV transformed Ba/F3 cells; settings: MTS assay, 72 hours, Table 9 key
T12 construct: expressed in transfected cells; host or cells: Ba/F3
Description: as §1, §2, §3

[13] = biological target: T13, mutant EGFR L858R transformed Ba/F3 cells (Homo sapiens, UniProt P00533, L858R); experiment: Proliferation inhibition assay, EGFR L858R transformed Ba/F3 cells
T13 construct: expressed in transfected cells; host or cells: Ba/F3

[14] = biological target: mutant EGFR Exon19del transformed Ba/F3 cells (Homo sapiens, UniProt P00533, cells depend on it, form not given); experiment: Proliferation inhibition assay, EGFR Exon19del transformed Ba/F3 cells
[15] = biological target: T14, mutant EGFR T790M/L858R transformed Ba/F3 cells (Homo sapiens, UniProt P00533, L858R/T790M); experiment: Proliferation inhibition assay, EGFR T790M/L858R transformed Ba/F3 cells
T14 construct: expressed in transfected cells; host or cells: Ba/F3

[16] = biological target: mutant EGFR T790M/exon19del transformed Ba/F3 cells (Homo sapiens, UniProt P00533, T790M, cells depend on it, form not given); experiment: Proliferation inhibition assay, EGFR T790M/exon19del transformed Ba/F3 cells
[17] = biological target: T1, wild-type EGFR transformed Ba/F3 cells; experiment: Western blot, EGFR phosphorylation, wild-type EGFR Ba/F3 cells; settings: indicated concentrations, 6 hours of treatment
Description: (§4) Cells are seeded and grow in culture plates, and then treated with representative compounds of the application the following day for various duration. Cells are washed with PBS and lysed.
(§5) Cells were plated at 5×10^5 cells per well in 6-well plates and treated with representative compounds of the application the following day. After 6 hours of treatment, cells were washed with PBS and lysed with NP40 buffer (Calbiochem®) supplemented with Complete™ Mini protease inhibitor and PhosSTOP™ phosphatase inhibitors (Rocheg).
(§6) Western blot analysis was then performed on the cells. The cells were plated at 5×10^5 cells per well in 6-well plates and treated with the indicated concentrations of the compound.
(§7) After 6 hours of treatment, cells were washed with PBS and lysed with NP40 buffer (Calbiochem) supplemented with Complete Mini protease inhibitor and PhosSTOP phosphatase inhibitors (Roche).

[18] = biological target: T15, EGFR InsGY transformed Ba/F3 cells (Homo sapiens, UniProt P00533, D770Y/INS769G); experiment: Western blot, EGFR phosphorylation, EGFR InsGY Ba/F3 cells; settings: indicated concentrations, 6 hours of treatment
T15 construct: expressed in transfected cells; host or cells: Ba/F3
Description: as §4, §5, §6, §7

[19] = biological target: T16, EGFR InsSVD transformed Ba/F3 cells (Homo sapiens, UniProt P00533, INS770SVD); experiment: Western blot, EGFR phosphorylation, EGFR InsSVD Ba/F3 cells; settings: indicated concentrations, 6 hours of treatment
T16 construct: expressed in transfected cells; host or cells: Ba/F3
Description: as §4, §5, §6, §7

T11 sequence (P04626 with tags, fused parts or gaps INS780GSP): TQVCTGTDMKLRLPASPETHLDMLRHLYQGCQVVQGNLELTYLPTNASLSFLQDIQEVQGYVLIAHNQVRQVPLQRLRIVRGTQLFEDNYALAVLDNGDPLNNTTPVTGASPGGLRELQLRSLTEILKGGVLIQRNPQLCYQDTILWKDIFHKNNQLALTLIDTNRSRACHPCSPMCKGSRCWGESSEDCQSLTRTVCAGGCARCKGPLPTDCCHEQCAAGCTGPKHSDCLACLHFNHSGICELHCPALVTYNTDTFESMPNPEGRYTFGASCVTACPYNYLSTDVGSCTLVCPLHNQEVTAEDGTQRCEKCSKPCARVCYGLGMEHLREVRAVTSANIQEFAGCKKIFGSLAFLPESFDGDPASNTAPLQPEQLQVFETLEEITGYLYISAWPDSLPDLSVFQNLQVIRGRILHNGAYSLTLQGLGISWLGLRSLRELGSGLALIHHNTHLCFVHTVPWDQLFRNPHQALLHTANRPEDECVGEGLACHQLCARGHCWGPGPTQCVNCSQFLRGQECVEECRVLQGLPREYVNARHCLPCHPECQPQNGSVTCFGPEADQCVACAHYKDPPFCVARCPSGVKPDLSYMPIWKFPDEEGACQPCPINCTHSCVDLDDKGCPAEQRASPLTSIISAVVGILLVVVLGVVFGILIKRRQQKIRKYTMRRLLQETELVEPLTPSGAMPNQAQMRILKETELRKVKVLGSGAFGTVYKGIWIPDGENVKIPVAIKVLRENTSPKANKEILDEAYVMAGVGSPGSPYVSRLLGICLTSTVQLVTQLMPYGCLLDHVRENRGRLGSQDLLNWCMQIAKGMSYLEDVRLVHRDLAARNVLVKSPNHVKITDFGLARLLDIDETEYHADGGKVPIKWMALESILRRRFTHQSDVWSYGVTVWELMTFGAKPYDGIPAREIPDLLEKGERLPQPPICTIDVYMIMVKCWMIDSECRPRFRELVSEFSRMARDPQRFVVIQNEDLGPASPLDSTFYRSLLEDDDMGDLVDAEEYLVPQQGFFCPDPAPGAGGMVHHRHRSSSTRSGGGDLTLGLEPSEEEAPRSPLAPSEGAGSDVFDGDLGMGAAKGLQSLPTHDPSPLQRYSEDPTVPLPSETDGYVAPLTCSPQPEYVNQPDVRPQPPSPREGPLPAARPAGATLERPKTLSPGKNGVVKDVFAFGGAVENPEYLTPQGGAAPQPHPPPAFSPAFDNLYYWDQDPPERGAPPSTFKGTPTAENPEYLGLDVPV
T12 sequence (P04626 with tags, fused parts or gaps INS773WL/M774V): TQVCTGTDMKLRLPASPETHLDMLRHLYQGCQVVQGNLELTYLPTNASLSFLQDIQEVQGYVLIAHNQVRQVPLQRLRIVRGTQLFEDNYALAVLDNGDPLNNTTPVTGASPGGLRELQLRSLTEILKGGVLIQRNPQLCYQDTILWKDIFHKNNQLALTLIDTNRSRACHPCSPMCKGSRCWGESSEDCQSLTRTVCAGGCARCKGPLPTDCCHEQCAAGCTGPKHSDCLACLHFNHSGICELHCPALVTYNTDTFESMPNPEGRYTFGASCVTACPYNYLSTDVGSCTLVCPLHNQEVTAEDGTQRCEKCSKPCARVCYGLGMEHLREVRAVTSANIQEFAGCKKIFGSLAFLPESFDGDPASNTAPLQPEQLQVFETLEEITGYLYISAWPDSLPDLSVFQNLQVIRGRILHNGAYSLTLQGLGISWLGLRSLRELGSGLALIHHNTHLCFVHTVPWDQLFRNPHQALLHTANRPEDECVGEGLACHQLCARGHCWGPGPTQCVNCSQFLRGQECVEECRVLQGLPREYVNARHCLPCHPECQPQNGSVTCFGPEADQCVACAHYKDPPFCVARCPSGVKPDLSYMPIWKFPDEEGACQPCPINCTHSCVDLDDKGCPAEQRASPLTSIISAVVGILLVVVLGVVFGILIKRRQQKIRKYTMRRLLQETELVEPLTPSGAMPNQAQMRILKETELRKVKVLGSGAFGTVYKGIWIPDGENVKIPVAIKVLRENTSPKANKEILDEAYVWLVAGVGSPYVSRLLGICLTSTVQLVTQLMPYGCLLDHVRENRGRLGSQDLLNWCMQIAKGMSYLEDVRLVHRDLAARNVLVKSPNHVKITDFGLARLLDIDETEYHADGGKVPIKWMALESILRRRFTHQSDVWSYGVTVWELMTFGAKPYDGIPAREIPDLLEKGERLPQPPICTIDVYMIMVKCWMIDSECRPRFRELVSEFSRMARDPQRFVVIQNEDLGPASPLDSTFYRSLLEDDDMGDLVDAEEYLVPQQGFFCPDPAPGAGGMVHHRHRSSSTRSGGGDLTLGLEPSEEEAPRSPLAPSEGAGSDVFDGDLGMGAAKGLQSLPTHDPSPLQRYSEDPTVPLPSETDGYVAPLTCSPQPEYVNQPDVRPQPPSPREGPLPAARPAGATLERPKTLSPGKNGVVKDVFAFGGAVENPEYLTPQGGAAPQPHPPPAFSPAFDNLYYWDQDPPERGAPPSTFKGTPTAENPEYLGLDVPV
T8 sequence (P04626 23-1255): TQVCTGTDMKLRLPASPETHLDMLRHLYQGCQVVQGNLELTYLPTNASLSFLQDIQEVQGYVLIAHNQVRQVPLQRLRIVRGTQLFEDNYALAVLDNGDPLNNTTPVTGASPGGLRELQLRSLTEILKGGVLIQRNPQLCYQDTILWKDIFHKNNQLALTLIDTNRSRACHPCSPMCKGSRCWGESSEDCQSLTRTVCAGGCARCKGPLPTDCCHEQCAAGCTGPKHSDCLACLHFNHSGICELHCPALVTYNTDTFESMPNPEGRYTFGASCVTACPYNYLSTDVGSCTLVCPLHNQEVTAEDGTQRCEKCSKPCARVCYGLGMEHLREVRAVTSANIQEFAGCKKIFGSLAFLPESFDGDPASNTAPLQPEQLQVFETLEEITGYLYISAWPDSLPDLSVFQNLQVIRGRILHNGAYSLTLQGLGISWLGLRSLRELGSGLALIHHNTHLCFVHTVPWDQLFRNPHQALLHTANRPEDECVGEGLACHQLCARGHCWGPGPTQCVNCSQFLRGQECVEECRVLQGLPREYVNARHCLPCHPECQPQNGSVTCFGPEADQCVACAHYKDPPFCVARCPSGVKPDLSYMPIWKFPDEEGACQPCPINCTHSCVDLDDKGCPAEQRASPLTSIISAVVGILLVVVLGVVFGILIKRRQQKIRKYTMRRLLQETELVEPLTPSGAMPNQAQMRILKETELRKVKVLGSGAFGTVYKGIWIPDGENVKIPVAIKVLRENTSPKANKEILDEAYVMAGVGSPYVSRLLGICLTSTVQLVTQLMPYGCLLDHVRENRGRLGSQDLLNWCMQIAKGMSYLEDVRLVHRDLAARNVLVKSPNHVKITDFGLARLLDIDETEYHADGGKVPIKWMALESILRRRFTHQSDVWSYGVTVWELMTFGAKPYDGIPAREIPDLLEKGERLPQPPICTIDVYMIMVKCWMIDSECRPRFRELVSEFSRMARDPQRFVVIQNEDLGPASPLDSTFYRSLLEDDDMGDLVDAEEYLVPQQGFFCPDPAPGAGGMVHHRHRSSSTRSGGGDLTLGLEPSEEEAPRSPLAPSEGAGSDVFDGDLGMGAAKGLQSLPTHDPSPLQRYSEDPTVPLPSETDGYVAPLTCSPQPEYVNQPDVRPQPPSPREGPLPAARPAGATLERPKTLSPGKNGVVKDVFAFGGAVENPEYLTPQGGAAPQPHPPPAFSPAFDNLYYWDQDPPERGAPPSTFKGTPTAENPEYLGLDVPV
T9 sequence (P04626 with tags, fused parts or gaps INS775YVMA): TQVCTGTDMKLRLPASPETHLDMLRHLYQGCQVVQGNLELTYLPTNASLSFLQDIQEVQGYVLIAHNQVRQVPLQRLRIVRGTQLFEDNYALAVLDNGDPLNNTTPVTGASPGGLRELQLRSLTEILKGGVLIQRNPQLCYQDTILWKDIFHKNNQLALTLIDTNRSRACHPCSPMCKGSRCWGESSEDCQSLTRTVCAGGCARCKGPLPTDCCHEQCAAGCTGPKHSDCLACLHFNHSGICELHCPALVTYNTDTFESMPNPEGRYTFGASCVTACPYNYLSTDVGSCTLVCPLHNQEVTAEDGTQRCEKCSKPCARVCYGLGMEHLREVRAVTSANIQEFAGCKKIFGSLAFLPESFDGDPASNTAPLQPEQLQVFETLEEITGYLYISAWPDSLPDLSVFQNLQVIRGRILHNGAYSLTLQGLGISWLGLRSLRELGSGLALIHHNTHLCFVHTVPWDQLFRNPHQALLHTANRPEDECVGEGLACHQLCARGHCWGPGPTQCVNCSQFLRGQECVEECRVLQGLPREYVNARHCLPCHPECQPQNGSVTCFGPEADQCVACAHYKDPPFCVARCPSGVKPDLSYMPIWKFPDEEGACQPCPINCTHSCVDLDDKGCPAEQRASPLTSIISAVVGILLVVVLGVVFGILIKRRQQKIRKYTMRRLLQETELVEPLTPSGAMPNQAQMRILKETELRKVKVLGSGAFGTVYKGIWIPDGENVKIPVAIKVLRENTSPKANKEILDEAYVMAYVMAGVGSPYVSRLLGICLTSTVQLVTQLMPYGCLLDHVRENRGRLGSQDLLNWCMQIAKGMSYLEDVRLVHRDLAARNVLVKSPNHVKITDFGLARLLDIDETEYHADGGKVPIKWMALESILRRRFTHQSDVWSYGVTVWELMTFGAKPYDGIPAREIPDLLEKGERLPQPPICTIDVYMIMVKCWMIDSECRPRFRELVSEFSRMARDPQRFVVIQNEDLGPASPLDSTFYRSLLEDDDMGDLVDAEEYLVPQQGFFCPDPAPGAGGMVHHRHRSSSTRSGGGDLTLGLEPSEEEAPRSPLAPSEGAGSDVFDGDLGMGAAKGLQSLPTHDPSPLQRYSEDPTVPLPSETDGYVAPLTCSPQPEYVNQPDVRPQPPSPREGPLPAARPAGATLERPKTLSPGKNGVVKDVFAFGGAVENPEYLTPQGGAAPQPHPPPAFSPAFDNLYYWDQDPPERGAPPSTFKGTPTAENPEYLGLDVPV

SMILES	EC50 [1] [nM]	EC50 [2] [nM]	EC50 [3] [nM]	EC50 [4] [nM]	EC50 [5] [nM]	EC50 [6] [nM]	EC50 [7] [nM]	EC50 [8] [nM]	EC50 [9] [nM]	EC50 [10] [nM]	EC50 [11] [nM]	EC50 [12] [nM]	EC50 [13] [nM]	EC50 [14] [nM]	EC50 [15] [nM]	EC50 [16] [nM]	EGFR phosphorylation (Western blot, FIG. 1) [17]	EGFR phosphorylation (Western blot, FIG. 1) [18]	EGFR phosphorylation (Western blot, FIG. 1) [19]
C=CC(=O)Nc1cccc(-n2c(=O)c(Oc3ccc(F)cc3F)cc3cnc(Nc4cnn(C)c4)nc32)c1 [Compound 2]	< 200	< 200	< 200	< 200	< 200	< 200	< 200	< 100	< 100	< 100	< 100	< 100	< 100	< 100	< 100	< 100	decrease in EGFR phosphorylation	decrease in EGFR phosphorylation	decrease in EGFR phosphorylation
C=CC(=O)Nc1cccc(-n2c(=O)c(Oc3ccc(F)cc3F)cc3cnc(Nc4cnn(C5CCN(C)CC5)c4)nc32)c1 [Compound 3]	< 200	< 200	< 200	< 200	200 to 600	200 to 600	< 200	< 100	< 100	100 to 250	< 100	100 to 250							
